Laboratory results: the supplement of paper PMC12463676, “Small-molecule dissolution of stress granules by redox modulation benefits ALS models” (Nature Chemical Biology, 2025)

Legend:
[1] = compound: NC(=O)CCCCC1CCSS1 [lipoamide]; experiment: thermal stability z-score vs DMSO; higher = more thermally stabilized by treatment; conditions: HeLa, lipoamide concentration 100 µM
Method: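 Cellular thermal proteome profiling in HeLa cells. Cells were treated with 100 µM lipoamide for 1 h, with or without 1 mM arsenate for a further 1 h, then heated to ten temperatures (37-66.3 °C), and soluble protein was quantified by TMT mass spectrometry relative to 0.1% DMSO controls. The thermal stability score (sum of log2 fold changes minus the abundance score) was transformed to a z-score; mean of n = 3 experiments.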

[2] = compound: O=[As]([O-])(O)O.[K+] [potassium arsenate]; experiment: as above; conditions: HeLa; arsenate concentration 1 mM
Method: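 Cellular thermal proteome profiling in HeLa cells treated with 1 mM arsenate for 1 h (DMSO pretreatment), heated to ten temperatures (37-66.3 °C). Soluble protein was quantified by TMT mass spectrometry relative to DMSO controls; the thermal stability score was transformed to a z-score; mean of n = 3 experiments.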

[3] = arsenate co-treatment: 1 mM arsenate 1 h
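Further: each temperature applied for 3 min, abundance score taken as mean log2 fold change at the two lowest temperatures, z-score obtained by mean subtraction and division by SD.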

Chain of UniProt Q6UVK1 (Q6UVK1 whole entry): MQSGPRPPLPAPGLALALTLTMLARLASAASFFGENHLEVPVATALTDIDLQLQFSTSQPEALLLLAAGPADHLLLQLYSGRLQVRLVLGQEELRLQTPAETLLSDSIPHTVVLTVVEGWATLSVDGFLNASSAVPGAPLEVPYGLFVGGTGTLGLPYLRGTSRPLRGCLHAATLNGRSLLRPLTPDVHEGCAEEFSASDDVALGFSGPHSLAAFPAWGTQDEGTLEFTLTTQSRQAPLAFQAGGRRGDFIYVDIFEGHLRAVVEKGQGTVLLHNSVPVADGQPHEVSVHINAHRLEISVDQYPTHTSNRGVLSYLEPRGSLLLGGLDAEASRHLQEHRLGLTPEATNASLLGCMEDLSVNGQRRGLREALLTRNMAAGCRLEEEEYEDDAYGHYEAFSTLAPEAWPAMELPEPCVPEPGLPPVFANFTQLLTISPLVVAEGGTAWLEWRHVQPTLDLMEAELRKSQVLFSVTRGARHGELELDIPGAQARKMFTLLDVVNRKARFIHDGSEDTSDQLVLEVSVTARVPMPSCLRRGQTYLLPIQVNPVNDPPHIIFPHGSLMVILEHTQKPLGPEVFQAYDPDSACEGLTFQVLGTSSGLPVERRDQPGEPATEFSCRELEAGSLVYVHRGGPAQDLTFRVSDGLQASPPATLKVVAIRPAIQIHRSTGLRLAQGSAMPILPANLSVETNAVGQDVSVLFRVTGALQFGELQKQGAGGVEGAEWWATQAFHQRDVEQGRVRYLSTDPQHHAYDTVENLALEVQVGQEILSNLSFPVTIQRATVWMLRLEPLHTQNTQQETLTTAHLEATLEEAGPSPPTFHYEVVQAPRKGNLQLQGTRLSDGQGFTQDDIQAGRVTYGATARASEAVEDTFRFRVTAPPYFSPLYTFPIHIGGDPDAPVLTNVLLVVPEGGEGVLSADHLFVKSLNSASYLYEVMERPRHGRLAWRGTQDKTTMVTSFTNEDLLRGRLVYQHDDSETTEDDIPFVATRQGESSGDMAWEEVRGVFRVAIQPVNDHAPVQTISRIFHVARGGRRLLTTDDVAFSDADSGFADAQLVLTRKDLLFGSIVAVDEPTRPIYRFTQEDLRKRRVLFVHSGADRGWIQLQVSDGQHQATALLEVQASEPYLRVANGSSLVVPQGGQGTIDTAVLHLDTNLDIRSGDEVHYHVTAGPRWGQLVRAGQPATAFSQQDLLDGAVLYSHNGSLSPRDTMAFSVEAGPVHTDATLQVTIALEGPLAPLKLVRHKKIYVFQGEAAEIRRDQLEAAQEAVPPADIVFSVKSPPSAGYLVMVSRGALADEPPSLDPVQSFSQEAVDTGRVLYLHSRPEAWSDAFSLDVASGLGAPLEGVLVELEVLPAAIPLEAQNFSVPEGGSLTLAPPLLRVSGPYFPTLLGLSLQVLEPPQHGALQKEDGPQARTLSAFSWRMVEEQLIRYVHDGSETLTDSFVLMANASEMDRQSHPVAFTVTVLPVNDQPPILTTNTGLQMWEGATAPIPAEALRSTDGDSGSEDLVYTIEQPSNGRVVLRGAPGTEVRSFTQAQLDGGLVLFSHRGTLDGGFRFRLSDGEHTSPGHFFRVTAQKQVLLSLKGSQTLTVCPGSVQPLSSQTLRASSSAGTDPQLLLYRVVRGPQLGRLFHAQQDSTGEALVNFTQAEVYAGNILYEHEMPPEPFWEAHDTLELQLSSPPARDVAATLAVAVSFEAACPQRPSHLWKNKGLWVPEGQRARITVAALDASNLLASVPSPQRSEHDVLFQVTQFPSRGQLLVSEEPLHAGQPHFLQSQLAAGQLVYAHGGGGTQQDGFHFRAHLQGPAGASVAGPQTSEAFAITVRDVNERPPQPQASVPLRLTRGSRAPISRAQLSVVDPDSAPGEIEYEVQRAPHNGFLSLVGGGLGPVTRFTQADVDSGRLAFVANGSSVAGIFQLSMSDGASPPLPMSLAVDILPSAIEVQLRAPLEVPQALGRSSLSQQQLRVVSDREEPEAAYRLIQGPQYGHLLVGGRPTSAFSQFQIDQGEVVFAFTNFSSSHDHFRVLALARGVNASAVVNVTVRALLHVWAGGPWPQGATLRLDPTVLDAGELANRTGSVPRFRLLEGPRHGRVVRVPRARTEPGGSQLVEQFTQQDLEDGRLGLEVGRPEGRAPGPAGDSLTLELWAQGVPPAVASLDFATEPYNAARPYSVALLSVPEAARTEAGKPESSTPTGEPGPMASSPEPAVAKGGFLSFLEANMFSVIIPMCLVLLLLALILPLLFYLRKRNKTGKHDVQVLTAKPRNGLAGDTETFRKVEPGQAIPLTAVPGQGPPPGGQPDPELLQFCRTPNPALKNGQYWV
Chain of UniProt O95989 (O95989 whole entry): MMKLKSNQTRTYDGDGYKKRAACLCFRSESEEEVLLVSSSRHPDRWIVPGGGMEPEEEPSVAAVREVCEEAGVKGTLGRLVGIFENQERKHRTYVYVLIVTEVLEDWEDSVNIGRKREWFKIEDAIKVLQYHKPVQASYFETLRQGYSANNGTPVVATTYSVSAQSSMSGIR
Chain of UniProt Q5ST30 (Q5ST30 whole entry): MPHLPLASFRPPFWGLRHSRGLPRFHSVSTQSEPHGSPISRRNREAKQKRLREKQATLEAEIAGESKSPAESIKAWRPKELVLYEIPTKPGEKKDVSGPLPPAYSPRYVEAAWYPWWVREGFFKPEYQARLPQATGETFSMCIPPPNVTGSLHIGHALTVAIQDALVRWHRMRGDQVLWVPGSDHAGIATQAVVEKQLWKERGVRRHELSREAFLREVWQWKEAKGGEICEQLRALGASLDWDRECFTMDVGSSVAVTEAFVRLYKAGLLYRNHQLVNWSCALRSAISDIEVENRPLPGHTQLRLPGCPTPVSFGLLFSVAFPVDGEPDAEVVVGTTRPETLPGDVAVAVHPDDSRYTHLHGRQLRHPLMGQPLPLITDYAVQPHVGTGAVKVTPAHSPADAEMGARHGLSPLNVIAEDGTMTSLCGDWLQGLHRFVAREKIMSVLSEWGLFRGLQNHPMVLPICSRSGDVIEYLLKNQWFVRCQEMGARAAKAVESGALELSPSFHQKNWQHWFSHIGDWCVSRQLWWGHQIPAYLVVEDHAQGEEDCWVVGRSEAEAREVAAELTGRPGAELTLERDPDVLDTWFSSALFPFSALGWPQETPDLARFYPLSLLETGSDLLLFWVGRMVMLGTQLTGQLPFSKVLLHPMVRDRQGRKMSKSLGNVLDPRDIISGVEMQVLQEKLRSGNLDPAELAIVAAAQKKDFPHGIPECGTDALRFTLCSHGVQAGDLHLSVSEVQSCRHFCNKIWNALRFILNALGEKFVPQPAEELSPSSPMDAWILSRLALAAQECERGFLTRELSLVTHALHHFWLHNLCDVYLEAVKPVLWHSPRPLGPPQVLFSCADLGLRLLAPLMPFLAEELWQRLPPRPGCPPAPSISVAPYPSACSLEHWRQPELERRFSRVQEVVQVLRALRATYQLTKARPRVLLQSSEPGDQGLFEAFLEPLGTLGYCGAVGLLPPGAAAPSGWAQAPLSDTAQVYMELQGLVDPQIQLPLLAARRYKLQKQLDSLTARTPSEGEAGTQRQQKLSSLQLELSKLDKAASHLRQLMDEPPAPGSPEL
Chain of UniProt Q9NZ32 (Q9NZ32 whole entry): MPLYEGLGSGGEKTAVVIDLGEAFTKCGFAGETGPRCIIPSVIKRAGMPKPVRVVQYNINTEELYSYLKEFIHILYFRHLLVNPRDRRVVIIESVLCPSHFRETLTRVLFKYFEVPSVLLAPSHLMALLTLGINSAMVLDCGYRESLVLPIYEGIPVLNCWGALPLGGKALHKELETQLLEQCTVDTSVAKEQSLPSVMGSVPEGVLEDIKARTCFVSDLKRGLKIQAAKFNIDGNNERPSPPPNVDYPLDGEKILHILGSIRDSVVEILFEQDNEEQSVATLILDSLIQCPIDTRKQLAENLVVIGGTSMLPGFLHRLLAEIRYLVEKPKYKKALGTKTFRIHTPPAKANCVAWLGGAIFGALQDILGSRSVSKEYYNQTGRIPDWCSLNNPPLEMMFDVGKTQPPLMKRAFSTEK
Chain of UniProt A0PJW6 (A0PJW6 whole entry): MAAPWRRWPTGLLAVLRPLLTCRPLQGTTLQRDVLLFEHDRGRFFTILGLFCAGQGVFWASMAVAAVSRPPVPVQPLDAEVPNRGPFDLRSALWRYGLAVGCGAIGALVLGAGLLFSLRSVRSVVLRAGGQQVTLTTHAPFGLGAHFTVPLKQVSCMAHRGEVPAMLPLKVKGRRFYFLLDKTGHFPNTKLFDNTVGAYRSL
Chain of UniProt Q96HR9 (Q96HR9 whole entry): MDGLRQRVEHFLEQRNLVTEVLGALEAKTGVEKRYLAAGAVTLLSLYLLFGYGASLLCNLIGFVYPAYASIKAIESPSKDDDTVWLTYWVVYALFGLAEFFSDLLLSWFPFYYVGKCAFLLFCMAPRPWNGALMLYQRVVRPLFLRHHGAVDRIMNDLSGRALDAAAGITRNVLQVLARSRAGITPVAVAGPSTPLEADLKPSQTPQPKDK
Chain of UniProt Q5T6F0 (Q5T6F0 whole entry): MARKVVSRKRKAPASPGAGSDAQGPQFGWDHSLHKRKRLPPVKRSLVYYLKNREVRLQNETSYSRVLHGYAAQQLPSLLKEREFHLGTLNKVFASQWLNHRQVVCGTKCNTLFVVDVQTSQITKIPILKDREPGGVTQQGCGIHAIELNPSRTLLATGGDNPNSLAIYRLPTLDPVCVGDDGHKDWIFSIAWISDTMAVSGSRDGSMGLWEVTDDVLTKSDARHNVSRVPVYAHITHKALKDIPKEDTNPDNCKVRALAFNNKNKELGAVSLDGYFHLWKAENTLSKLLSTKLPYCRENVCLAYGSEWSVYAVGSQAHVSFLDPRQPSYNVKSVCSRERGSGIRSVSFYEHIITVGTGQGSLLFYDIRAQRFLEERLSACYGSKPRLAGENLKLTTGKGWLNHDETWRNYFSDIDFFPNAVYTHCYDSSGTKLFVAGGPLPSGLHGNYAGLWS
Chain of UniProt Q13442 (Q13442 whole entry): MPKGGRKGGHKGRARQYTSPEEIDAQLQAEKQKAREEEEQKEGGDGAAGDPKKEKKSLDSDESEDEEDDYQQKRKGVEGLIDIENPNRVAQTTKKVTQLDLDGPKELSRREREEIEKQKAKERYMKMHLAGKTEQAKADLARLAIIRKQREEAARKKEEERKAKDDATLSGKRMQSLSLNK

Target	thermal stability z-score [1, 3]	thermal stability z-score ([1]; arsenate co-treatment: none)	thermal stability z-score [2]
CCDC93 (UniProt Q567U6)	-0.728	-0.078	0.0272
SNX6 (UniProt Q9UNH7)	0.175	0.276	0.277
HSPA12A (UniProt O43301)	-0.677	-0.446	-0.84
RPL7L1 (UniProt Q6DKI1)	0.203	0.0421	-0.203
ANXA8L1 (UniProt Q5VT79)	-0.11	-0.0845	0.00565
MAPK3 (UniProt P27361)	-0.115	-0.114	-0.214
WDR81 (UniProt Q562E7)	-0.0547	-0.0815	0.105
LYRM7 (UniProt Q5U5X0)	0.507	0.358	-0.0732
RPL6 (UniProt Q02878)	0.349	0.0467	-0.92
FKBP15 (UniProt Q5T1M5)	-0.422	-0.17	0.523
CALM1 (UniProt P0DP23)	3.06	1.53	1.29
GSE1 (UniProt Q14687)	0.0903	0.0397	-0.12
SERPINB8 (UniProt P50452)	0.899	0.458	-1.08
STEAP3 (UniProt Q658P3)	0.104	0.572	-0.122
R3HCC1L (UniProt Q7Z5L2)	0.00414	0.282	0.0177
GMEB1 (UniProt Q9Y692)	-0.239	-0.0658	0.19
BRD8 (UniProt Q9H0E9)	0.111	-0.0134	-1.06
HPDL (UniProt Q96IR7)	1.09	0.497	1.13
VARS2 (UniProt Q5ST30)	-0.824	-0.273	0.279
SNX16 (UniProt P57768)	1.01	-0.515	-0.741
RNF139 (UniProt Q8WU17)	-1.16	-0.12	0.947
DCAF12 (UniProt Q5T6F0)	0.118	0.0205	0.154
GSTZ1 (UniProt O43708)	-0.243	0.0552	0.239
ALG11 (UniProt Q2TAA5)	0.266	-0.15	0.806
NUDT3 (UniProt O95989)	0.511	0.241	-0.213
PHKB (UniProt Q93100)	0.125	0.135	0.278
ENGASE (UniProt Q8NFI3)	0.198	0.101	-0.36
NUDT12 (UniProt Q9BQG2)	0.0414	0.0448	0.253

Target	thermal stability z-score [1, 3]	thermal stability z-score ([1]; arsenate co-treatment: none)	thermal stability z-score [2]
PDAP1 (UniProt Q13442)	0.179	0.298	-0.0329
REEP6 (UniProt Q96HR9)	0.703	0.825	0.0059
FAM21C (UniProt Q9Y4E1)	0.0661	0.32	0.0902
WNK1 (UniProt Q9H4A3)	0.149	-0.0327	0.386
ARHGEF5 (UniProt Q12774)	-0.685	0.596	0.214
GCC2 (UniProt Q8IWJ2)	-0.88	-0.098	0.827
RSRC2 (UniProt Q7L4I2)	0.668	0.164	1.03
C20ORF27 (UniProt Q9GZN8)	0.247	0.189	-0.583
RPE (UniProt Q96AT9)	0.536	0.285	-0.0195
TMOD3 (UniProt Q9NYL9)	-0.494	0.384	0.732
PI4KB (UniProt Q9UBF8)	-0.62	0.386	0.692
CSPG4 (UniProt Q6UVK1)	-0.203	-0.907	-0.945
PAPOLG (UniProt Q9BWT3)	-0.086	0.083	0.167
C19ORF52 (UniProt Q9BSF4)	0.441	0.873	0.873
CHMP4B (UniProt Q9H444)	0.0919	0.359	-0.176
GTPBP8 (UniProt Q8N3Z3)	0.145	0.0392	-0.0237
DNAAF2 (UniProt Q9NVR5)	-0.15	-0.168	-0.268
SLC12A4 (UniProt Q9UP95)	-0.481	-1.18	-0.606
ACTR10 (UniProt Q9NZ32)	-0.106	0.0788	-0.312
SDHB (UniProt P21912)	-0.24	-0.16	-0.681
NGLY1 (UniProt Q96IV0)	-0.149	-0.0587	0.0507
MBLAC2 (UniProt Q68D91)	-0.0603	0.367	0.708
GIGYF2 (UniProt Q6Y7W6)	-0.406	-0.109	0.0976
TMEM223 (UniProt A0PJW6)	-0.653	0.466	1.09
SLC46A1 (UniProt Q96NT5)	-0.375	0.408	-1.24
RPL13A (UniProt P40429)	0.328	0.16	-0.496
C4BPB (UniProt P20851)	-5.06	-5.39	0.18
